Consider 29 compounds from patent US12534452B2, “N-(1H-imidazol-2-yl)benzamide compound and pharmaceutical composition comprising the same as active ingredient” (KAINOS MEDICINE, INC., priority 2019, dated 2026).

The structures appear in SMILES notation.

Sequence of IRAK4 (Q9NWZ3 whole entry): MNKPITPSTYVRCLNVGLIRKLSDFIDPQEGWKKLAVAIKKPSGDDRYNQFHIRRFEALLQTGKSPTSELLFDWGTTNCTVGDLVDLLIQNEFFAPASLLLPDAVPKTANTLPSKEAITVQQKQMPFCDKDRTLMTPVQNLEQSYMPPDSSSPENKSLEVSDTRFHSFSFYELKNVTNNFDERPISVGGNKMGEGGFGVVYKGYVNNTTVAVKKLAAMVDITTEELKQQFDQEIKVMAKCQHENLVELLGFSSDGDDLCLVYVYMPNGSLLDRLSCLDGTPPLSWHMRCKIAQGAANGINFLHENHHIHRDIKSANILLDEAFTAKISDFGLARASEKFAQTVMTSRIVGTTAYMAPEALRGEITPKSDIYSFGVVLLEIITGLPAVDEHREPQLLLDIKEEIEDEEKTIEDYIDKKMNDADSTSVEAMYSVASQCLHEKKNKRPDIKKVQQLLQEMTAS

The test concerns the target IRAK4 (Homo sapiens (Human), UniProt Q9NWZ3). Description: In vitro IRAK4 phosphorylation activity assay. The test is classed as biochemical. The conditions noted are these: [γ-33P]-ATP, myelin basic protein substrate, 40 minutes at room temperature; categories. The procedure:
In vitro IRAK4 analysis was performed using N-(1H-imidazol-2-yl)benzamide compounds according to the present invention. All compounds were prepared by dissolving in DMSO. N-(1H-imidazol-2-yl)benzamide compound according to the present invention and other elements for the reaction were added to an assay well. In the standard Kinase Profiler service the preincubation step between the N-(1H-imidazol-2-yl)benzamide compound and kinase was not performed before the reaction.
To the positive control well, all reactants except for the N-(1H-imidazol-2-yl)benzamide compound according to the present invention were added, and DMSO was added to remove the solvent effect. A known control inhibitor having the following structure was added to the blank wells to inhibit kinase activity and establish a base-line.
IRAK4 was incubated with 8 mM MOPS pH 7.0, 0.2 mM EDTA, 0.33 mg/mL myelin basic protein, 10 mM magnesium acetate and [γ-33P]-ATP (specific activity approx. 500 cpm/pmol, concentration as required). The reaction was initiated by the addition of the MgATP mix. After incubation for 40 minutes at room temperature, the reaction was stopped by the addition of 3% phosphoric acid solution. 10 μL of the reaction was then spotted onto a P30 filtermat and washed three times for 5 minutes in 75 mM phosphoric acid and once in methanol prior to drying and scintillation counting.
The results are shown in Table 26 below, where the phosphorylation activity of IC50 values for IRAK4 is shown in categories (A: <50 nM, B: 50-100 nM, C: >100 nM).
Consider `O=C(CCc1cn(-c2ccccc2)c(NC(=O)c2cccc(-c3c[nH]nc3[N+](=O)[O-])c2)n1)Nc1ccccc1` [Example 1, 3-(3-nitro-1H-pyrazol-4-yl)-N-(4-(3-oxo-3-(phenylamino)propyl)-1-phenyl-1H-imidazol-2-yl)benzamide], for which the IC50 (commonly the point on the concentration scale where inhibition reaches its midpoint) was above 100 nM.
In the case of `Nc1n[nH]cc1-c1cccc(C(=O)Nc2nc(CCC(=O)Nc3ccccc3)cn2-c2ccccc2)c1` [Example 2, 3-(3-amino-1H-pyrazol-4-yl)-N-(4-(3-oxo-3-(phenylamino)propyl)-1-phenyl-1H-imidazol-2-yl)benzamide] it was above 100 nM.
Under `O=C(CCc1cn(-c2ccccc2)c(NC(=O)c2cccc(-c3c[nH]nc3C(F)(F)F)c2)n1)Nc1ccccc1` [Example 3, N-(4-(3-oxo-3-(phenylamino)propyl)-1-phenyl-1H-imidazol-2-yl)-3-(3-(trifluoromethyl)-1H-pyrazol-4-yl)benzamide] stands above 100 nM; under `O=C(CCc1cn(-c2ccccc2)c(NC(=O)c2cncc(-c3cn[nH]c3)c2)n1)Nc1ccccc1` [Example 4, N-(4-(3-oxo-3-(phenylamino)propyl)-1-phenyl-1H-imidazol-2-yl)-5-(1H-pyrazol-4-yl)nicotinamide], above 100 nM; under `O=C(CCc1cn(-c2ccccc2)c(NC(=O)c2cccc(-c3cnoc3)c2)n1)Nc1ccccc1` [Example 5, 3-(isoxazol-4-yl)-N-(4-(3-oxo-3-(phenylamino)propyl)-1-phenyl-1H-imidazol-2-yl)benzamide], above 100 nM.
For `O=C(CCc1cn(-c2ccccc2)c(NC(=O)c2cccc(-c3cn[nH]c3)c2)n1)Nc1ccccc1` [Example 6, N-(4-(3-oxo-3-(phenylamino)propyl)-1-phenyl-1H-imidazol-2-yl)-3-(1H-pyrazol-4-yl)benzamide], the IC50 is below 50 nM.
In the case of `O=C(O)CCc1cn(-c2ccccc2)c(NC(=O)c2cccc(-c3cn[nH]c3)c2)n1` [Example 7, 3-(2-(3-(1H-pyrazol-4-yl)benzamido)-1-phenyl-1H-imidazol-4-yl)propanoic acid] it was below 50 nM.
Under `O=C(CCc1cn(-c2ccccc2)c(NC(=O)c2cccc(-c3cn[nH]c3)c2)n1)NN1CCCCC1` [Example 8, N-(4-(3-oxo-3-(piperidin-1-ylamino)propyl)-1-phenyl-1H-imidazol-2-yl)-3-(1H-pyrazol-4-yl)benzamide] stands 50 to 100 nM; under `CN1CCN(NC(=O)CCc2cn(-c3ccccc3)c(NC(=O)c3cccc(-c4cn[nH]c4)c3)n2)CC1` [Example 9, N-(4-(3-((4-methylpiperazin-1-yl)amino)-3-oxopropyl)-1-phenyl-1H-imidazol-2-yl)-3-(1H-pyrazol-4-yl)benzamide], above 100 nM.
In the case of `O=C(CCc1cn(-c2ccccc2)c(NC(=O)c2cccc(-c3cn[nH]c3)c2)n1)Nc1ccc(F)cc1` [Example 10, N-(4-(3-((4-fluorophenyl)amino)-3-oxopropyl)-1-phenyl-1H-imidazol-2-yl)-3-(1H-pyrazol-4-yl)benzamide] it was 50 to 100 nM.
In turn, `O=C(Nc1nc(CCC(=O)N2CCOCC2)cn1-c1ccccc1)c1cccc(-c2cn[nH]c2)c1` [Example 11, N-(4-(3-morpholino-3-oxopropyl)-1-phenyl-1H-imidazol-2-yl)-3-(1H-pyrazol-4-yl)benzamide] registered a concentration for half-maximal inhibition (IC50) below 50 nM.
`O=C(Nc1nc(CCC(=O)N2CCCCC2)cn1-c1ccccc1)c1cccc(-c2cn[nH]c2)c1` [Example 12, N-(4-(3-oxo-3-(piperidin-1-yl)propyl)-1-phenyl-1H-imidazol-2-yl)-3-(1H-pyrazol-4-yl)benzamide] showed an IC50 below 50 nM.
The compound `COC[C@@H]1CCCN1NC(=O)CCc1cn(-c2ccccc2)c(NC(=O)c2cccc(-c3cn[nH]c3)c2)n1` [Example 13, (S)—N-(4-(3-((2-(methoxymethyl)pyrrolidin-1-yl)amino)-3-oxopropyl)-1-phenyl-1H-imidazol-2-yl)-3-(1H-pyrazol-4-yl)benzamide] returned an IC50 of 50 to 100 nM.
In the case of `O=C(Nc1nc(CCC(=O)N2CCN(Cc3ccc(OC(F)(F)F)cc3)CC2)cn1-c1ccccc1)c1cccc(-c2cn[nH]c2)c1` [Example 14, N-(4-(3-oxo-3-(4-(4-(trifluoromethoxy)benzyl)piperazin-1-yl)propyl)-1-phenyl-1H-imidazol-2-yl)-3-(1H-pyrazol-4-yl)benzamide] it was above 100 nM; in that of `O=C(CCc1cn(-c2ccccc2)c(NC(=O)c2cccc(-c3cn[nH]c3)c2)n1)Nc1ccccn1` [Example 15, N-(4-(3-oxo-3-(pyridin-2-ylamino)propyl)-1-phenyl-1H-imidazol-2-yl)-3-(1H-pyrazol-4-yl)benzamide], above 100 nM; in that of `O=C(CCc1cn(-c2ccccc2)c(NC(=O)c2cccc(-c3cn[nH]c3)c2)n1)Nc1ccc(F)cc1F` [Example 16, N-(4-(3-((2,4-difluorophenyl)amino)-3-oxopropyl)-1-phenyl-1H-imidazol-2-yl)-3-(1H-pyrazol-4-yl)benzamide], below 50 nM.
Under `COC[C@H]1CCCN1NC(=O)CCc1cn(-c2ccccc2)c(NC(=O)c2cccc(-c3cn[nH]c3)c2)n1` [Example 17, (R)—N-(4-(3-((2-(methoxymethyl)pyrrolidin-1-yl)amino)-3-oxopropyl)-1-phenyl-1H-imidazol-2-yl)-3-(1H-pyrazol-4-yl)benzamide] stands above 100 nM; under `COC(=O)CCc1cn(-c2ccccc2)c(NC(=O)c2cccc(-c3cn[nH]c3)c2)n1` [Example 18, methyl 3-(2-(3-(1H-pyrazol-4-yl)benzamido)-1-phenyl-1H-imidazol-4-yl)propanoate], below 50 nM.
Under `COC[C@@H]1CCCN1C(=O)CCc1cn(-c2ccccc2)c(NC(=O)c2cccc(-c3cn[nH]c3)c2)n1` [Example 19, (S)—N-(4-(3-(2-(methoxymethyl)pyrrolidin-1-yl)-3-oxopropyl)-1-phenyl-1H-imidazol-2-yl)-3-(1H-pyrazol-4-yl)benzamide] stands 50 to 100 nM; under `COC[C@H]1CCCN1C(=O)CCc1cn(-c2ccccc2)c(NC(=O)c2cccc(-c3cn[nH]c3)c2)n1` [Example 20, (R)—N-(4-(3-(2-(methoxymethyl)pyrrolidin-1-yl)-3-oxopropyl)-1-phenyl-1H-imidazol-2-yl)-3-(1H-pyrazol-4-yl)benzamide], above 100 nM.
Compound `O=C(CCc1cn(-c2ccccc2)c(NC(=O)c2cccc(-c3cn[nH]c3)c2)n1)Nn1cnnc1` [Example 21, N-(4-(3-((4H-1,2,4-triazol-4-yl)amino)-3-oxopropyl)-1-phenyl-1H-imidazol-2-yl)-3-(1H-pyrazol-4-yl)benzamide] registered an IC50 of 50 to 100 nM.
Under `O=C(CCc1cn(-c2ccccc2)c(NC(=O)c2cccc(-c3cn[nH]c3)c2)n1)Nc1cnccn1` [Example 22, N-(4-(3-oxo-3-(pyrazin-2-ylamino)propyl)-1-phenyl-1H-imidazol-2-yl)-3-(1H-pyrazol-4-yl)benzamide] stands above 100 nM; under `C[C@@H]1CCCN1C(=O)CCc1cn(-c2ccccc2)c(NC(=O)c2cccc(-c3cn[nH]c3)c2)n1` [Example 23, (R)—N-(4-(3-(2-methylpyrrolidin-1-yl)-3-oxopropyl)-1-phenyl-1H-imidazol-2-yl)-3-(1H-pyrazol-4-yl)benzamide], below 50 nM; under `C[C@H]1CCCN1C(=O)CCc1cn(-c2ccccc2)c(NC(=O)c2cccc(-c3cn[nH]c3)c2)n1` [Example 24, (S)—N-(4-(3-(2-methylpyrrolidin-1-yl)-3-oxopropyl)-1-phenyl-1H-imidazol-2-yl)-3-(1H-pyrazol-4-yl)benzamide], below 50 nM.
In the case of `O=C(Nc1nc(CCC(=O)N2CC[C@@H](C(=O)O)C2)cn1-c1ccccc1)c1cccc(-c2cn[nH]c2)c1` [Example 25, (R)-1-(3-(2-(3-(1H-pyrazol-4-yl)benzamido)-1-phenyl-1H-imidazol-4-yl)propanoyl)pyrrolidine-3-carboxylic acid] it was 50 to 100 nM.
Under `O=C(Nc1nc(CCC(=O)N2CC[C@H](C(=O)O)C2)cn1-c1ccccc1)c1cccc(-c2cn[nH]c2)c1` [Example 26, (S)-1-(3-(2-(3-(1H-pyrazol-4-yl)benzamido)-1-phenyl-1H-imidazol-4-yl)propanoyl)pyrrolidine-3-carboxylic acid] stands above 100 nM; under `O=C(CCc1cn(-c2ccccc2)c(NC(=O)c2cccc(-c3cn[nH]c3)c2)n1)NN1CCCC1` [Example 27, N-(4-(3-oxo-3-(pyrrolidin-1-ylamino)propyl)-1-phenyl-1H-imidazol-2-yl)-3-(1H-pyrazol-4-yl)benzamide], above 100 nM.
Compound `O=C(Nc1nc(CCC(=O)N2CCCC2)cn1-c1ccccc1)c1cccc(-c2cn[nH]c2)c1` [Example 28, N-(4-(3-oxo-3-(pyrrolidin-1-yl)propyl)-1-phenyl-1H-imidazol-2-yl)-3-(1H-pyrazol-4-yl)benzamide] yielded a concentration for half-maximal inhibition (IC50) below 50 nM.
Under `C[C@@H]1CC[C@@H](C)N1C(=O)CCc1cn(-c2ccccc2)c(NC(=O)c2cccc(-c3cn[nH]c3)c2)n1` [Example 29, N-(4-(3-((2R,5R)-2,5-dimethylpyrrolidin-1-yl)-3-oxopropyl)-1-phenyl-1H-imidazol-2-yl)-3-(1H-pyrazol-4-yl)benzamide] stands below 50 nM.
